Results from PMC8126888 (RSC Medicinal Chemistry, 2020).
Read-outs that look alike come from different tables or passages of the source.

Tests used:
in vitro [1] = conditions: PAMPA
in vitro [2] = conditions: human, HFF-1 cells
[3] = system: Leishmania infantum MHOM/MA(BE)/67/ITMAP263 intracellular amastigotes; assay: microbe, parasite or virus in culture; conditions: Macrophage, in Mus musculus
[4] = system: Trypanosoma cruzi, Tulahuen CL2, beta-galactosidase strain; assay: microbe, parasite or virus in culture; conditions: MRC5, read-out: T. cruzi Tulahuen C4 (LacZ) IC50 (uM)
in vitro [5] = conditions: human
in vitro [6] = conditions: human, HepG2 cells
[7] = system: primary peritoneal mouse macrophages (PMM); assay: cells; conditions: Macrophage, read-out: PMM IC50 (uM)
in vitro [8] = conditions: mouse, microsomes, pH 7.4, MLM CLint (uL/min/mg), mouse liver microsomes
in vitro [9] = conditions: human, microsomes, pH 7.4, HLM CLint (uL/min/mg), human liver microsomes
physchem = conditions: HPLC, Ascentis Express RP Amide column, pH 7.4, eLogD, experimental
[10] = read-out: L. Inf. pIC50, from L. infantum intracellular amastigote IC50 (converted)
[11] = read-out: L. infantum MHOM/MA(BE)/67/ITMAP263 intracellular amastigotes IC50 (uM), intracellular amastigotes

Row | Compound | Papp (in vitro [1]) [×10⁻⁶ cm/s] | CC50 (in vitro [2]) [µM] | IC50 [3, 10] [µM] | IC50 [3, 11] [µM] | IC50 [4] [µM] | CC50 at 3 days (in vitro [5]) [µM] | CC50 (in vitro [6]) [µM] | IC50 [7] [µM] | microsomal CLint at 0.5 μM (in vitro [8]) [µL/min/mg] | microsomal CLint at 0.5 μM (in vitro [9]) [µL/min/mg] | chromatographic logD (physchem)
1 | COc1ccc(C(=O)NC2COC2)cc1S(=O)(=O)N(Cc1ccc(F)cc1)Cc1ccc(F)cc1 [DNDI0003371174] | 4.92 | > 64 | 0.794 | 0.79 | 38.5 | > 64 | > 64 | > 64 | 395 | 178 | 
2 | COc1ccc(Cl)cc1S(=O)(=O)N(Cc1ccccc1)CC(N)c1ccc(F)cc1 (stereo not drawn) [DNDI0003389932] | 0.59 | > 64 | 6.46 | 6.39 | 4.64 | 14 | 19.5 | 32 | 239 | 34 | 4.3
3 | COc1ccc(OC)c(S(=O)(=O)N(Cc2ccc(F)cc2)Cc2cnc(OC)nc2OC)c1 [DNDI0003389321] | 15.2 | > 64 | 53.7 | 53.8 | 27.8 | > 64 | > 64 | > 64 | 861 | 270 | 
4 | CS(=O)(=O)c1ccccc1S(=O)(=O)N(Cc1ccccc1)Cc1ccccc1 [DNDI0003389642] | 6.25 | 38.1 | 32.4 | 32 | 24.3 | > 64 | > 64 | > 64 | 502 | 248 | 4.1
5 | CNC(=O)c1ccc(OC)c(S(=O)(=O)N(CCOC)Cc2ccccc2)c1 [DNDI0003392128] | 7.61 |  | 28.2 | 28.1 | > 64 | > 64 |  | > 64 | 393 | 23 | 2.7
6 | O=S1(=O)c2cc(F)ccc2OCC(c2ccc(F)cc2)N1Cc1ccccc1 (stereo not drawn) [DNDI0003389122] |  | 12.1 | 10.2 | 10.2 | > 64 | > 64 | > 64 | 16 |  |  | 4.9
7 | COc1ccc(Cl)cc1S(=O)(=O)N(Cc1ccccc1)C(CO)c1ccc(F)cc1 (stereo not drawn) [DNDI0003388149] | 3.4 | 1.25 | 1.7 | 1.69 | 15.8 | 21.6 | 15.7 | > 64 | 38 | 18 | 
8 | COc1ccc(OC)c(S(=O)(=O)N(Cc2ccc(F)cc2)Cc2ccc(C#N)cc2)c1 [DNDI0003388088] | 3.57 | 51.9 | 18.6 | 18.6 | 19 | > 64 | 36.2 | > 64 |  | 87 | 4.1
9 | COc1ccc(CN(Cc2ccc(F)cc2)S(=O)(=O)c2cc(F)ccc2OCC[N+](C)(C)CC(=O)O)cc1 [DNDI0003389931] | 0.36 | 61.1 | > 64 | > 64 | 13.1 | > 64 | > 64 | > 64 | 17 | 14 | 3.8
10 | O=S(=O)(c1cc(N2CCOCC2)ccc1OC(F)F)N(Cc1ccc(F)cc1)Cc1ccc(F)cc1 [DNDI0003389647] | 0.12 | 37.6 | 0.501 | 0.5 | 5.62 | > 64 | > 64 | 45.2 | 462 | 153 | 4.8
11 | COc1ccc(C(=O)N2CCOCC2)cc1S(=O)(=O)N(Cc1ccc(F)cc1)Cc1ccccc1Cl [DNDI0003389128] | 9 | 10.5 | 1.41 | 1.4 | 9.66 | 36.8 | > 64 | > 64 | 1660 | 351 | 4.1
12 | O=S(=O)(c1cccnc1N1CCOCC1)N(Cc1ccc(F)cc1)Cc1ccc(F)cc1 [DNDI0003389119] | 3.63 | 29.4 | 2.82 | 2.83 | 15.1 | > 64 | > 64 | > 64 | 738 | 823 | 4.5
